In PubChem BioAssay (NCI):
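Step 1: Grow cells in 96-well plates. Step 2: Expose to compound for 48 hours at 5 concentrations. Step 3: Interpolate endpoints linearly; if unreached, use highest concentration. The concentration for 50% growth inhibition is given as GI50. The concentration for full growth arrest is given as TGI.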

What follows are molecules tested on A498 renal (assay: inhibition of tumour cell growth, NCI panel, 48 h).

Point of comparison: `CCNC(=S)N/N=C/c1ccccn1`, TGI 36.8 µM. Against it:
- O=c1oc2ccccc2c2nc3ccccc3cc12 — 2.6-fold higher, 96.4 µM
- CCCC[C@@H]1CCN2C[C@@H](O)[C@@H](O)[C@H]2[C@@H]1O — higher, > 100 µM
- O=C(NN1C(=O)CSC1c1ccc(Cl)c(Cl)c1)c1ccncc1 (stereo not given) — higher, > 100 µM
- CCOC(=O)c1csc(NC(=O)CCCC#N)n1 — higher, > 100 µM
- O=c1cc(-c2ccccc2F)[nH]c2cc3c(cc12)OCO3 — 17-fold lower, 2.13 µM
- CC(C)(C)c1ccc2c(c1)OCc1n[nH]c(n1)COc1cc(C(C)(C)C)ccc1OCCOCCO2 — 1.7-fold lower, 21.3 µM
- COC1OC2COC(C)(C)OC2C2OC(C)(C)OC12 (stereo not given) — higher, > 100 µM
- COc1ccc(CCCCl)c(C2=NCCc3ccccc32)c1 — higher, > 100 µM
- C=C1CC=CC(C)(C)C1C/C=C(\C)C(O)CBr (stereo not given) — higher, > 100 µM
- CCOC(=O)C(C)NC(=O)N(C)C12CC3CC(CC(C3)C1)C2 (stereo not given) — 12-fold higher, 442 µM
- O=c1c2cc3c(=O)n(CCc4ccccc4CO)c(=O)c3cc2c(=O)n1CCc1ccccc1CO — higher, > 100 µM
- FC(F)=C(c1ccc(-c2ccc(Cl)cc2)cc1)C(F)(F)F — within 1.5-fold, 31.9 µM
- COC(=O)[C@H]1C=C[C@H](OC2OC(COC(C)=O)C(OC(C)=O)C(OC(C)=O)C2OC(C)=O)n2c(=O)n(-c3ccccc3)c(=O)n21 (stereo not given in full) — 2.1-fold lower, 17.6 µM

The molecules below were run on CAKI-1 renal (assay: inhibition of tumour cell growth, NCI panel, 48 h).

Point of comparison: `Cc1ccc(-n2cc(-c3ccc(Cl)cc3)c3c2N=CN2NC(c4ccco4)=NC32)cc1` (stereo not given), TGI 27.3 µM. Against it:
- CCOP(=O)(OCC)c1cc(-c2ccccc2)ccc1N — higher, > 100 µM
- CC1(C)OC(CCO)CN1C(=O)OCc1ccccc1 (stereo not given) — higher, > 100 µM
- COc1cc2c(cc1OCCCOc1cc3c(cc1OC)C(=O)N1CCC[C@H]1CN3)N=C[C@@H]1CCCN1C2=O — 15-fold lower, 1.88 µM
- CCOC(=O)C1=C(C)NC(=O)N([N+](=O)[O-])C1c1ccccc1C(F)(F)F (stereo not given) — higher, > 100 µM
- O=c1c(Cc2ccccc2)c(-c2ccccc2)[nH]n1C1=NCCN1 — higher, > 100 µM
- CCOC(=O)Cc1nn2c(=O)cc(C)nc2s1 — higher, > 100 µM
- COP(=O)(CC(=O)C1OC(OCc2ccccc2)C(OCc2ccccc2)C(OCc2ccccc2)C1OCc1ccccc1)OC (stereo not given) — within 1.5-fold, 19.5 µM
- Cc1cn(C2CC(OC(c3ccccc3)(c3ccccc3)c3ccccc3)C(COC(c3ccccc3)(c3ccccc3)c3ccccc3)O2)c(=O)[nH]c1=O (stereo not given) — higher, > 100 µM
- CCOC(=O)C(NC(=O)c1ccc(N=NN(C)C)cc1)C(C)C (stereo not given) — higher, > 100 µM
- COc1cc(CCCOC2OC(COC3OCC(O)C(O)C3O)C(O)C(O)C2O)cc2cc(-c3ccc4c(c3)OCO4)oc12 (stereo not given) — higher, > 175 µM
- C(=N/Nc1ccc(-c2nc3ccccc3[nH]2)cc1)/c1c(-c2ccccc2)[nH]c2ccccc12 — higher, > 100 µM
- CC1OC(n2cc(F)c(=O)[nH]c2=O)C(O[Si](C)(C)C(C)(C)C)C1O[Si](C)(C)C(C)(C)C (stereo not given) — within 1.5-fold, 28.9 µM
- CCOC(=O)c1c(NC(=S)Nc2ccc(C)cc2)sc2c1CCN(C)C2 — higher, > 100 µM
- c1ccc([P+](Cc2csnn2)(c2ccccc2)c2ccccc2)cc1 — higher, > 100 µM
- c1ccc(-c2ccc(N=NN3CCCC3)cc2)cc1 — higher, > 100 µM
- COc1cc2nc(-c3c(F)cccc3F)n(Cc3c(F)cccc3F)c2cc1Cc1c(F)cccc1F — higher, > 100 µM
- CC(C)Cc1c(C#N)c(C#N)c(N)n1Cc1ccccc1 — higher, > 100 µM
- NS(=O)(=O)c1nnc(NSc2ccc([N+](=O)[O-])cc2)s1 — higher, > 100 µM
- O=c1oc2ccccc2c2nc3ccccc3cc12 — higher, > 100 µM
- CCCC[C@@H]1CCN2C[C@@H](O)[C@@H](O)[C@H]2[C@@H]1O — higher, > 100 µM
- O=C(NN1C(=O)CSC1c1ccc(Cl)c(Cl)c1)c1ccncc1 (stereo not given) — higher, > 100 µM
- CCOC(=O)c1csc(NC(=O)CCCC#N)n1 — higher, > 100 µM
- CC(C)(C)c1ccc2c(c1)OCc1n[nH]c(n1)COc1cc(C(C)(C)C)ccc1OCCOCCO2 — 1.9-fold lower, 14.6 µM
- COC1OC2COC(C)(C)OC2C2OC(C)(C)OC12 (stereo not given) — within 1.5-fold, 33.1 µM
- COc1ccc(CCCCl)c(C2=NCCc3ccccc32)c1 — higher, > 100 µM
- C=C1CC=CC(C)(C)C1C/C=C(\C)C(O)CBr (stereo not given) — 2-fold higher, 54.1 µM
- CCOC(=O)C(C)NC(=O)N(C)C12CC3CC(CC(C3)C1)C2 (stereo not given) — higher, > 404 µM
- CCc1cc(=O)n(/C(C)=C/c2ccccc2)n1C — higher, > 100 µM
- C/C(=N\Nc1nc2ccccc2s1)c1cccnn1 — higher, > 100 µM
- FC(F)=C(c1ccc(-c2ccc(Cl)cc2)cc1)C(F)(F)F — 1.7-fold higher, 46.3 µM
- COC(=O)[C@H]1C=C[C@H](OC2OC(COC(C)=O)C(OC(C)=O)C(OC(C)=O)C2OC(C)=O)n2c(=O)n(-c3ccccc3)c(=O)n21 (stereo not given in full) — 11-fold lower, 2.4 µM
- N/C(CSCCSC/C(N)=N/O)=N\O — higher, > 100 µM

The molecules below were run on T-47D breast (assay: inhibition of tumour cell growth, NCI panel, 48 h).

Point of comparison: `FC(F)=C(c1ccc(-c2ccc(Cl)cc2)cc1)C(F)(F)F`, TGI 76.8 µM. Against it:
- COc1cc2c(cc1OCCCOc1cc3c(cc1OC)C(=O)N1CCC[C@H]1CN3)N=C[C@@H]1CCCN1C2=O — higher, > 100 µM
- CCOC(=O)C1=C(C)NC(=O)N([N+](=O)[O-])C1c1ccccc1C(F)(F)F (stereo not given) — higher, > 100 µM
- O=c1c(Cc2ccccc2)c(-c2ccccc2)[nH]n1C1=NCCN1 — higher, > 100 µM
- CCOC(=O)Cc1nn2c(=O)cc(C)nc2s1 — higher, > 100 µM
- COP(=O)(CC(=O)C1OC(OCc2ccccc2)C(OCc2ccccc2)C(OCc2ccccc2)C1OCc1ccccc1)OC (stereo not given) — 1.8-fold lower, 41.9 µM
- CN1c2ccccc2C(=O)NC12CCN(CC1COc3ccccc3O1)CC2 (stereo not given) — within 1.5-fold, 98.8 µM
- CCOC1NC(=O)c2ccccc21 (stereo not given) — higher, > 100 µM
- O=C1c2c(c3c4ccc(Br)cc4oc3c3[nH]c4ccccc4c23)C(=O)N1O — higher, > 100 µM
- O=CN(O)CC(=O)O — higher, > 100 µM
- C(=N/Nc1ccc(-c2nc3ccccc3[nH]2)cc1)/c1c(-c2ccccc2)[nH]c2ccccc12 — higher, > 100 µM
- CC1OC(n2cc(F)c(=O)[nH]c2=O)C(O[Si](C)(C)C(C)(C)C)C1O[Si](C)(C)C(C)(C)C (stereo not given) — 2.8-fold lower, 27.1 µM
- CCOC(=O)c1c(NC(=S)Nc2ccc(C)cc2)sc2c1CCN(C)C2 — higher, > 100 µM
- c1ccc(-c2ccc(N=NN3CCCC3)cc2)cc1 — higher, > 100 µM
- COc1cc2nc(-c3c(F)cccc3F)n(Cc3c(F)cccc3F)c2cc1Cc1c(F)cccc1F — higher, > 100 µM
- CC(C)Cc1c(C#N)c(C#N)c(N)n1Cc1ccccc1 — higher, > 100 µM
- NS(=O)(=O)c1nnc(NSc2ccc([N+](=O)[O-])cc2)s1 — higher, > 100 µM
- Nc1nc(Nc2ccc(OCc3cccc(F)c3)cc2)c2c(n1)[nH]c1ccc(O)cc12 — 17-fold lower, 4.5 µM
- CC1=NC(C)(C)N(O)C1(C)C — higher, > 100 µM
- O=c1oc2ccccc2c2nc3ccccc3cc12 — higher, > 100 µM
- CCOC(=O)c1csc(NC(=O)CCCC#N)n1 — higher, > 100 µM
- O=c1cc(-c2ccccc2F)[nH]c2cc3c(cc12)OCO3 — higher, > 100 µM
- CC(C)(C)c1ccc2c(c1)OCc1n[nH]c(n1)COc1cc(C(C)(C)C)ccc1OCCOCCO2 — 6.2-fold lower, 12.4 µM
- COC1OC2COC(C)(C)OC2C2OC(C)(C)OC12 (stereo not given) — higher, > 100 µM
- CCNC(=S)N/N=C/c1ccccn1 — higher, > 100 µM
- COc1ccc(CCCCl)c(C2=NCCc3ccccc32)c1 — higher, > 100 µM
- O=C(CN=C(CN(c1ccccc1)c1ccccc1)Oc1c(Cl)cc(Cl)cc1Cl)n1cnc2ccccc21 — higher, > 100 µM
- CCc1cc(=O)n(/C(C)=C/c2ccccc2)n1C — higher, > 100 µM
- COC(=O)[C@H]1C=C[C@H](OC2OC(COC(C)=O)C(OC(C)=O)C(OC(C)=O)C2OC(C)=O)n2c(=O)n(-c3ccccc3)c(=O)n21 (stereo not given in full) — not separable, > 28.1 µM
- N/C(CSCCSC/C(N)=N/O)=N\O — higher, > 100 µM

Point of comparison: `Nc1nc(Nc2ccc(OCc3cccc(F)c3)cc2)c2c(n1)[nH]c1ccc(O)cc12`, GI50 1790 nM. Against it:
- O=C1c2c(c3c4ccc(Br)cc4oc3c3[nH]c4ccccc4c23)C(=O)N1O — within 1.5-fold, 1920 nM

These molecules were tested on SF-268 CNS (assay: inhibition of tumour cell growth, NCI panel, 48 h).

Point of comparison: `Nc1nc(Nc2ccc(OCc3cccc(F)c3)cc2)c2c(n1)[nH]c1ccc(O)cc12`, TGI 12.2 µM. Against it:
- CCOP(=O)(OCC)c1cc(-c2ccccc2)ccc1N — higher, > 100 µM
- COc1cc2c(cc1OCCCOc1cc3c(cc1OC)C(=O)N1CCC[C@H]1CN3)N=C[C@@H]1CCCN1C2=O — 26-fold lower, 0.473 µM
- CCOC(=O)C1=C(C)NC(=O)N([N+](=O)[O-])C1c1ccccc1C(F)(F)F (stereo not given) — higher, > 100 µM
- O=c1c(Cc2ccccc2)c(-c2ccccc2)[nH]n1C1=NCCN1 — higher, > 100 µM
- CCOC(=O)Cc1nn2c(=O)cc(C)nc2s1 — higher, > 100 µM
- COP(=O)(CC(=O)C1OC(OCc2ccccc2)C(OCc2ccccc2)C(OCc2ccccc2)C1OCc1ccccc1)OC (stereo not given) — higher, > 100 µM
- CN1c2ccccc2C(=O)NC12CCN(CC1COc3ccccc3O1)CC2 (stereo not given) — higher, > 100 µM
- CCOC1NC(=O)c2ccccc21 (stereo not given) — higher, > 100 µM
- Cc1cn(C2CC(OC(c3ccccc3)(c3ccccc3)c3ccccc3)C(COC(c3ccccc3)(c3ccccc3)c3ccccc3)O2)c(=O)[nH]c1=O (stereo not given) — higher, > 100 µM
- CCOC(=O)C(NC(=O)c1ccc(N=NN(C)C)cc1)C(C)C (stereo not given) — higher, > 100 µM
- COc1cc(CCCOC2OC(COC3OCC(O)C(O)C3O)C(O)C(O)C2O)cc2cc(-c3ccc4c(c3)OCO4)oc12 (stereo not given) — higher, > 175 µM
- O=CN(O)CC(=O)O — higher, > 100 µM
- C(=N/Nc1ccc(-c2nc3ccccc3[nH]2)cc1)/c1c(-c2ccccc2)[nH]c2ccccc12 — higher, > 100 µM
- CC1OC(n2cc(F)c(=O)[nH]c2=O)C(O[Si](C)(C)C(C)(C)C)C1O[Si](C)(C)C(C)(C)C (stereo not given) — 2.4-fold higher, 29.8 µM
- CCOC(=O)c1c(NC(=S)Nc2ccc(C)cc2)sc2c1CCN(C)C2 — higher, > 100 µM
- Cc1ccc(-n2cc(-c3ccc(Cl)cc3)c3c2N=CN2NC(c4ccco4)=NC32)cc1 (stereo not given) — 6.9-fold higher, 83.6 µM
- c1ccc([P+](Cc2csnn2)(c2ccccc2)c2ccccc2)cc1 — higher, > 100 µM
- c1ccc(-c2ccc(N=NN3CCCC3)cc2)cc1 — higher, > 100 µM
- COc1cc2nc(-c3c(F)cccc3F)n(Cc3c(F)cccc3F)c2cc1Cc1c(F)cccc1F — higher, > 100 µM
- CC(C)Cc1c(C#N)c(C#N)c(N)n1Cc1ccccc1 — higher, > 100 µM
- NS(=O)(=O)c1nnc(NSc2ccc([N+](=O)[O-])cc2)s1 — higher, > 100 µM
- CCC1(CC)C(=O)NC(=S)N=C1N — higher, > 100 µM
- CC1=NC(C)(C)N(O)C1(C)C — higher, > 100 µM
- CCCC[C@@H]1CCN2C[C@@H](O)[C@@H](O)[C@H]2[C@@H]1O — higher, > 100 µM

Molecule `Nc1nc(Nc2ccc(OCc3cccc(F)c3)cc2)c2c(n1)[nH]c1ccc(O)cc12` has a GI50 of 3.1 µM.
